For 1 compound, Pirg-1GFP reporter induction results are on record in patent US11573231B2, “Biomarker of aging” (Max-Planck-Gesellschaft zur Forderung der Wissenschaften …, priority 2017, dated 2023).

The test system of this experiment is irg-1. As to the kind of experiment: Pirg-1GFP translation suppression reporter in worms. As to conditions: 3-hour treatment, 2 mg/ml. Format: in vivo, C. elegans. The text has this: DIC microscopy was used to perform all the nucleolar imaging. Hypodermal cells of age-matched day 1 adults were imaged using 100× magnification with Olympus IX81. Freehand tool software from Fiji was used for nucleolar area quantification. FIB-1::GFP, HLH-30::GFP and N2+Pirg-1GFP worms were imaged using Olympus IX81 and Axio Imager Z1(Zeiss).

For `C[C@@H]1C[C@@H]([C@H](O)CC2CC(=O)NC(=O)C2)C(=O)[C@@H](C)C1` [cycloheximide], the Pirg-1GFP reporter induction entry was “induced”. In addition, the Pirg-1GFP reporter induction entry (listed as Cyclohexamide) is “strongly induced”.
